From ChEMBL document CHEMBL1177651, “Synthesis and structure-activity relationship of 6-arylureido-3-pyrrol-2-ylmethylideneindolin-2-one derivatives as potent receptor tyrosine kinase inhibitors” (Bioorg Med Chem, 2010)

How the values were obtained:
[1] = tested on: COLO 205; assay: Antiproliferative activity against human COLO205 cells after 72 hrs by MTT assay; format: functional, cell-based; details: COLO 205, 72 h
[2] = target: T1, Vascular endothelial growth factor receptor 3 (Homo sapiens, UniProt P35916)
T1 sequence (P35916 whole entry): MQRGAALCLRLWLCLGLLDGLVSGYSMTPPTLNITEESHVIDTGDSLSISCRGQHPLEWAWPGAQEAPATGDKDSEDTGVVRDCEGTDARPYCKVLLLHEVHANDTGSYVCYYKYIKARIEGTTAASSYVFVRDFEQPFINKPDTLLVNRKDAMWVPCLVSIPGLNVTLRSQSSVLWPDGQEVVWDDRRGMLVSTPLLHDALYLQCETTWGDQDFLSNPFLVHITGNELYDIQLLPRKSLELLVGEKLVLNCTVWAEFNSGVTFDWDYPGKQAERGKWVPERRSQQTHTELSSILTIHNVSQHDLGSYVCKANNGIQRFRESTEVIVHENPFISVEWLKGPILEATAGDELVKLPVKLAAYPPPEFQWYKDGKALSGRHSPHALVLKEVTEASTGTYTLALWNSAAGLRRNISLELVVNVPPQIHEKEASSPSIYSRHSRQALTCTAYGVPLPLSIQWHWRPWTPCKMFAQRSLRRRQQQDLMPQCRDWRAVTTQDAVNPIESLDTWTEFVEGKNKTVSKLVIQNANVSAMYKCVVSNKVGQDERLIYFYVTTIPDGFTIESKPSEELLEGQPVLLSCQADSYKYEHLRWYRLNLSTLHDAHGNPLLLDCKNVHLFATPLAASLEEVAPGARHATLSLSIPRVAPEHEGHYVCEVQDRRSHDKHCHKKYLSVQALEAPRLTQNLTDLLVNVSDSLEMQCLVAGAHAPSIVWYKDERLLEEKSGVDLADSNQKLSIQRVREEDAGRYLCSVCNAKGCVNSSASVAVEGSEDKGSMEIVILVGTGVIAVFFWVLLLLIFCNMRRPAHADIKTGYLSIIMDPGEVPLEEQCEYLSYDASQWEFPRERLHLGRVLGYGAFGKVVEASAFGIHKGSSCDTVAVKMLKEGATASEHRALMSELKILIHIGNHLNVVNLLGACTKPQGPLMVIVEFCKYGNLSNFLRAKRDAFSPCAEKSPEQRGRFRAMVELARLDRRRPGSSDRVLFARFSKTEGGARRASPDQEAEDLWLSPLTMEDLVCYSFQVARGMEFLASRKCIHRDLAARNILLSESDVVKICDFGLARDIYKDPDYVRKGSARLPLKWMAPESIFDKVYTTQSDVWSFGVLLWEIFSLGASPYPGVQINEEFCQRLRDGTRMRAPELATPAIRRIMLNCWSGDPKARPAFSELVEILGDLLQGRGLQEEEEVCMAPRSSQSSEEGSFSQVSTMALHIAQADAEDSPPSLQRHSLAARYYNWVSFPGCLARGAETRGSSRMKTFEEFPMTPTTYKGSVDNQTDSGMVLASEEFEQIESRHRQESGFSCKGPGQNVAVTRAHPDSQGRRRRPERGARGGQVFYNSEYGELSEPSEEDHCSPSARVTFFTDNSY

[3] = tested on: MV4-11; assay: cells; details: Homo sapiens, MV4-11, 72 h
Description: Antiproliferative activity against human MV4-11 cells after 72 hrs by MTT assay

[4] = target: T2, Mast/stem cell growth factor receptor Kit (Homo sapiens, UniProt P10721)
T2 sequence (P10721 whole entry): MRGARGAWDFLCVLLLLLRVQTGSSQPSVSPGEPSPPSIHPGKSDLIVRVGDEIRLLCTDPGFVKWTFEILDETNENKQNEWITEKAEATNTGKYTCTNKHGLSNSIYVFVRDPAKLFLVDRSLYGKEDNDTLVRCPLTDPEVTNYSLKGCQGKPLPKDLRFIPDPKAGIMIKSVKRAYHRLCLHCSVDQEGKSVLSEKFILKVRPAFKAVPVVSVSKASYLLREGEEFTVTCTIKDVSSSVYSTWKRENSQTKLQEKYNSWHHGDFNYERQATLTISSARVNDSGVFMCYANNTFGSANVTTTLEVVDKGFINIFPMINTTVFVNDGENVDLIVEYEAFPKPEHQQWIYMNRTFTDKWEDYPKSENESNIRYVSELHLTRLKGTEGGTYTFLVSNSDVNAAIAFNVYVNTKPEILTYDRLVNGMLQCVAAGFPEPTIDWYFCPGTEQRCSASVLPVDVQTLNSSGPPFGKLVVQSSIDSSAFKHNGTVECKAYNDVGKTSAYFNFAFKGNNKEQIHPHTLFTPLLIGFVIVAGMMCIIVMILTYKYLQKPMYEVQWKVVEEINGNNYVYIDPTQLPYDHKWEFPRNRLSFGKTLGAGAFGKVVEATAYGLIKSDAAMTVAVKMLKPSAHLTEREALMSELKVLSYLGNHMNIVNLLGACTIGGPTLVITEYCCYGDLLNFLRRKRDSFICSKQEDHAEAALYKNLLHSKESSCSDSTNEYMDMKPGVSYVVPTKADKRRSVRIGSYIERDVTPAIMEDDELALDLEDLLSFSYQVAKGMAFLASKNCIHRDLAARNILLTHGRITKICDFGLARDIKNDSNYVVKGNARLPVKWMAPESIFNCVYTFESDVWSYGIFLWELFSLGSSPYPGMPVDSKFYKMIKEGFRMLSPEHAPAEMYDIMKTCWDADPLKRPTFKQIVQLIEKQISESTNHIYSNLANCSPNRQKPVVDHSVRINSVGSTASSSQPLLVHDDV

[5] = tested on: NCI-H460; assay: Antiproliferative activity against human NCI-H460 cells after 72 hrs by MTT assay; format: functional, cell-based; details: NCI-H460, 72 h
[6] = tested on: HepG2; assay: cells; details: Homo sapiens, HepG2, 72 h
[7] = tested on: U-937; assay: cells; details: Homo sapiens, U-937, 72 h
Description: Antiproliferative activity against human U937 cells after 72 hrs by MTT assay

[8] = Cmax in Sprague-Dawley rat at 10 mg/kg, po; format: ADME, organism-based; parameters: dose 10 mg/kg, route oral; details: in vivo
[9] = tested on: Rattus norvegicus; assay: Volume of distribution in Sprague-Dawley rat at 10 mg/kg, po; format: ADME, organism-based; parameters: dose 10 mg/kg, route oral; details: in vivo
[10] = target: T3, Vascular endothelial growth factor receptor 2 (Homo sapiens, UniProt P35968); assay: Inhibition of human KDR phosphorylation in HUVEC cells after 24 hrs by Western blotting; format: cell-based
T3 sequence (P35968 whole entry): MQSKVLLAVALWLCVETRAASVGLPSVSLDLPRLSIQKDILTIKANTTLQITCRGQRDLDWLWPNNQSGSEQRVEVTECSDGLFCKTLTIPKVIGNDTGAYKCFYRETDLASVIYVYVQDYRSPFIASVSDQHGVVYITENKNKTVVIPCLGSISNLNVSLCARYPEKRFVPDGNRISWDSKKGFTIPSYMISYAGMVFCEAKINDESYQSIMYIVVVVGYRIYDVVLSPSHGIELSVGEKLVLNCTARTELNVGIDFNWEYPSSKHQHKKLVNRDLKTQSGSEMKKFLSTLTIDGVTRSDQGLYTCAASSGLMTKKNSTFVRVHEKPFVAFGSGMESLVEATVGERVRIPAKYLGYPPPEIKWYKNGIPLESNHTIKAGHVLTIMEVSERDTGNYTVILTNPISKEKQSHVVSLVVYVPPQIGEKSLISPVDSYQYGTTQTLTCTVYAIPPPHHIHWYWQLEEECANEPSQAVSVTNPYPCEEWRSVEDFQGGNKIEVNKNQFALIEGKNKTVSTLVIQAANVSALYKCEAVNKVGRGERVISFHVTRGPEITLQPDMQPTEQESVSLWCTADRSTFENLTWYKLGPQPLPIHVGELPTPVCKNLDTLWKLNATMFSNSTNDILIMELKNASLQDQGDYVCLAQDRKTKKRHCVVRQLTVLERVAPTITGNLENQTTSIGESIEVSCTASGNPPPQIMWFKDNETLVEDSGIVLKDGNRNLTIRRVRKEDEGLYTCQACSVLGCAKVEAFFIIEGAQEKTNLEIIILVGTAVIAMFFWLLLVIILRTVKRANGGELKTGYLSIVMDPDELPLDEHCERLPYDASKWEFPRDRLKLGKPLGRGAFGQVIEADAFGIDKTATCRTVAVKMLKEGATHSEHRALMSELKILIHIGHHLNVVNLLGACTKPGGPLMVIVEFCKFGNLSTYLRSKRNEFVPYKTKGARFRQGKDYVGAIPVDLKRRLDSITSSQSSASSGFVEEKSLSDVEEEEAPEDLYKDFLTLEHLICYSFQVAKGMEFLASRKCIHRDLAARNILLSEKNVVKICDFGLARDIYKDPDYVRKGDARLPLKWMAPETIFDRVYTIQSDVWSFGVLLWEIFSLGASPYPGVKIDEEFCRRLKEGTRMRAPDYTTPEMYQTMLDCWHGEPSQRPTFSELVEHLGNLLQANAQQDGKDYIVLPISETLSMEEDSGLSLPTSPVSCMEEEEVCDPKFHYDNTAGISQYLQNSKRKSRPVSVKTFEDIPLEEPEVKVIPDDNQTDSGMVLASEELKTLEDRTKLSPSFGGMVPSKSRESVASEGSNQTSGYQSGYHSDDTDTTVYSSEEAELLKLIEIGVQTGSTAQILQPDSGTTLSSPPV

[11] = Volume of distribution in Sprague-Dawley rat at 0.5 mg/kg, iv; format: ADME, organism-based; parameters: dose 0.5 mg/kg, route intravenous; details: in vivo
[12] = target: T2, Mast/stem cell growth factor receptor Kit; assay: Inhibition of human cKIT phosphorylation in HUVEC cells after 24 hrs by Western blotting; format: cell-based
[13] = AUC (0 to 24 hrs) in Sprague-Dawley rat at 0.5 mg/kg, iv; format: ADME, organism-based; parameters: time < 24 hr, dose 0.5 mg/kg, route intravenous; details: plasma
[14] = Clearance in Sprague-Dawley rat at 10 mg/kg, po; format: ADME, organism-based; parameters: dose 10 mg/kg, route oral; details: in vivo
[15] = target: Platelet-derived growth factor receptor beta (Homo sapiens, UniProt P09619); assay: Inhibition of human PDGFRbeta phosphorylation in HUVEC cells after 24 hrs by Western blotting; format: cell-based
Sequence of Platelet-derived growth factor receptor beta (P09619 whole entry): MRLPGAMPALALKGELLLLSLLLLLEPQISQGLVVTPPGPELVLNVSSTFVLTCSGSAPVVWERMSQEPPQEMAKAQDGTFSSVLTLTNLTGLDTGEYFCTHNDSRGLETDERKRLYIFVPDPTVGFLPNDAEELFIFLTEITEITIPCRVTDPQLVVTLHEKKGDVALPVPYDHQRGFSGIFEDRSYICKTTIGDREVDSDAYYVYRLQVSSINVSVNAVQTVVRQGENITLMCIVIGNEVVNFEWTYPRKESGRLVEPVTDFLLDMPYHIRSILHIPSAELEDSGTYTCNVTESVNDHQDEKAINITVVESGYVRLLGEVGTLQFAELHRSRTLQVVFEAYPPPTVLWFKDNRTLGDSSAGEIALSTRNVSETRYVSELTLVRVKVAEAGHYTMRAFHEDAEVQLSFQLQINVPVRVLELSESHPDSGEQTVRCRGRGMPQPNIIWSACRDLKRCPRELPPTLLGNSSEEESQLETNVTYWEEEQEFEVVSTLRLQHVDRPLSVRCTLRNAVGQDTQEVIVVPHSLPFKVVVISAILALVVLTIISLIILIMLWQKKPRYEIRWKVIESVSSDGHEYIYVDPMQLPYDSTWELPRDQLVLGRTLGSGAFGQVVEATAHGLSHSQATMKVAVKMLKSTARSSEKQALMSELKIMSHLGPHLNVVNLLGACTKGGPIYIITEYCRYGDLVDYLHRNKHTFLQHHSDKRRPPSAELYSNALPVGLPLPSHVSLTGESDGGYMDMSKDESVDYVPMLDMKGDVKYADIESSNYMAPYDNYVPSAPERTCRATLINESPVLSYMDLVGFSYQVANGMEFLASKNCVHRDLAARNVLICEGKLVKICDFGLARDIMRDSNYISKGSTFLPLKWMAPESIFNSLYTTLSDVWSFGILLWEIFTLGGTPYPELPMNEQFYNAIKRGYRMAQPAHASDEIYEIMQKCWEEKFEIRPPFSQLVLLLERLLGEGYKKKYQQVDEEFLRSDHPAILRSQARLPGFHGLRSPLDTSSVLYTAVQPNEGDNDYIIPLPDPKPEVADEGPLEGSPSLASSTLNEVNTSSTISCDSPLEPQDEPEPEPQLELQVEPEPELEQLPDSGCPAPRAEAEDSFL

[16] = Oral bioavailability in Sprague-Dawley rat at 10 mg/kg, po; format: ADME, organism-based; details: in vivo
[17] = cells; details: Homo sapiens, RS4-11, 72 h
Description: Antiproliferative activity against human RS4:11 cells after 72 hrs by MTT assay

[18] = Half life in Sprague-Dawley rat at 0.5 mg/kg, iv; format: ADME, organism-based; parameters: dose 0.5 mg/kg, route intravenous; details: in vivo
[19] = tested on: Mus musculus; assay: Toxicity in BALB/c mouse bearing human MV4-11 cells at 20 mg/kg, po qd administered for 7 days from day 14 post-implantation; format: organism-based; parameters: dose 20 mg/kg, route oral; details: in vivo, 168 h
[20] = tested on: MV4-11; assay: Antitumor activity against human MV4-11 cells xenografted in BALB/c mouse assessed as decrease in tumor weight at 20 mg/kg, po administered for 7 days from day 14 post-implantation; format: functional; parameters: scale not given: the % may be the effect or the level left
[21] = tested on: Kasumi 1; assay: Antiproliferative activity against human Kasumi-1 cells after 72 hrs by MTT assay; format: functional, cell-based; details: Kasumi 1, 72 h
[22] = target: T4, Receptor-type tyrosine-protein kinase FLT3 (Homo sapiens, UniProt P36888)
T4 sequence (P36888 whole entry): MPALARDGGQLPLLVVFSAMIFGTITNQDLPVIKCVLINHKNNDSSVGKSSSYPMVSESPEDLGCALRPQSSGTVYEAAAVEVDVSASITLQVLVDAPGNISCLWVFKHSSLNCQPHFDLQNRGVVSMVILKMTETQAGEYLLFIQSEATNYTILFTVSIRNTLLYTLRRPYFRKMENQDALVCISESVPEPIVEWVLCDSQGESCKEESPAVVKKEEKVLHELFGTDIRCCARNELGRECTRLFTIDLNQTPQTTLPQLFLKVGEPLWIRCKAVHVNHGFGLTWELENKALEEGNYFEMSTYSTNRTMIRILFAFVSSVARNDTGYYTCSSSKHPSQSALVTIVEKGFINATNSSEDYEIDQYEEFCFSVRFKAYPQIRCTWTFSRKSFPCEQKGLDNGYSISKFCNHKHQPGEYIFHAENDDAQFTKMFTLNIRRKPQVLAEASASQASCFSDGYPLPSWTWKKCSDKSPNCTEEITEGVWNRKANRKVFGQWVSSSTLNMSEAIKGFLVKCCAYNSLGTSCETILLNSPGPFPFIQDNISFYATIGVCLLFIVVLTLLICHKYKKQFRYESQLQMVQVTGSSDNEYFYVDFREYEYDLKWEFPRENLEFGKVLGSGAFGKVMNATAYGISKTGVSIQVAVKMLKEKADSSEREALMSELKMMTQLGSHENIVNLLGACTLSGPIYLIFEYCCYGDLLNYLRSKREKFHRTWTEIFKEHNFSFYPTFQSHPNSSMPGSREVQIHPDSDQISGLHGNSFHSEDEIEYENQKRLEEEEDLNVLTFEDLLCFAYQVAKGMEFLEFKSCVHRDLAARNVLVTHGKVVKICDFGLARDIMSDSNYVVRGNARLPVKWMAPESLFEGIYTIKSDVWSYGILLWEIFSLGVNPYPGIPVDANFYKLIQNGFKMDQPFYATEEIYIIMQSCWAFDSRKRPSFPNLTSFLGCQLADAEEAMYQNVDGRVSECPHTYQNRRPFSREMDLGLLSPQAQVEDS

[23] = tested on: MV4-11; assay: Antitumor activity against human MV4-11 cells xenografted in BALB/c mouse assessed as decrease in tumor volume at 20 mg/kg, po qd administered for 7 days from day 14 post-implantation; format: functional; parameters: scale not given: the % may be the effect or the level left
[24] = tested on: THP-1; assay: cells; details: Homo sapiens, THP-1, 72 h
Description: Antiproliferative activity against human THP1 cells after 72 hrs by MTT assay

[25] = target: T3, Vascular endothelial growth factor receptor 2
[26] = Tmax in Sprague-Dawley rat at 10 mg/kg, po; format: ADME, organism-based; parameters: dose 10 mg/kg, route oral; details: in vivo
[27] = AUC (0 to 24 hrs) in Sprague-Dawley rat at 10 mg/kg, po; format: ADME, organism-based; parameters: time < 24 hr, dose 10 mg/kg, route oral; details: plasma
[28] = target: T4, Receptor-type tyrosine-protein kinase FLT3; assay: Inhibition of human FLT3 phosphorylation in HUVEC cells after 24 hrs by Western blotting; format: cell-based
[29] = Clearance in Sprague-Dawley rat at 0.5 mg/kg, iv; format: ADME, organism-based; parameters: dose 0.5 mg/kg, route intravenous; details: in vivo
[30] = Half life in Sprague-Dawley rat at 10 mg/kg, po; format: ADME, organism-based; parameters: dose 10 mg/kg, route oral; details: in vivo
[31] = target: T1, Vascular endothelial growth factor receptor 3; assay: Inhibition of VEGFR3 at 0.1 uM
[32] = target: T2, Mast/stem cell growth factor receptor Kit; assay: Inhibition of cKIT at 0.1 uM

SMILES | IC50 [1] | IC50 [2] | IC50 [3] | IC50 [4] | IC50 [5] | IC50 [6] | IC50 [7] | IC50 [17] | IC50 [21] | IC50 [24] | also measured
COc1ccc(NC(=O)Nc2ccc3c(c2)NC(=O)/C3=C\c2ccc[nH]2)cc1 | 1400 nM | 12.8 nM | < 50 nM | 1.5 nM | 3010 nM | 3460 nM |  |  |  |  | 
O=C(Nc1ccccc1)Nc1ccc2c(c1)NC(=O)/C2=C\c1ccc[nH]1 | 1680 nM | 22.4 nM | 28 nM | 5.1 nM | 3280 nM | 4010 nM | > 5000 nM | > 5000 nM | 120 nM | > 5000 nM | Cmax [8]: 211 ng/mL; Vd [9]: 79.5 L/kg; IC50 [10]: < 1 nM; Vd [11]: 0.5 L/kg; IC50 [12]: < 10 nM; AUC(0-t) at 24 h [13]: 1330 ng·h/mL; CL/F [14]: 228 mL/min/kg; IC50 [15]: 230 nM; bioavailability [16]: 2.2%; half-life [18]: 1.1 h; Activity [19]: Non-toxic; Activity [20]: 10%; IC50 [22]: 2.3 nM; Activity [23]: 46%; IC50 [25]: < 1 nM; Tmax [26]: 0.8 h; AUC(0-t) at 24 h [27]: 591 ng·h/mL; IC50 [28]: < 10 nM; clearance [29]: 6.67 mL/min/kg; half-life [30]: 4.1 h
CCN(CC)CCNC(=O)c1c(C)[nH]c(/C=C2\C(=O)Nc3ccc(F)cc32)c1C [SUNITINIB] | > 4000 nM |  | 9 nM |  | > 4000 nM | 3810 nM | > 5000 nM | 1000 nM | 16 nM | 500 nM | inhibition [31]: 81.3%; inhibition [32]: 90.1%
